Experimental data reported in article PMC3181484 (The EMBO Journal, 2011).

Assays:
TRESK = biological target: T1, TRESK (Homo sapiens, UniProt Q7Z418); test: QA ion block of TRESK currents, giant inside-out patches from Xenopus oocytes; assay type: cell-based
T1 sequence (Q7Z418 1-384): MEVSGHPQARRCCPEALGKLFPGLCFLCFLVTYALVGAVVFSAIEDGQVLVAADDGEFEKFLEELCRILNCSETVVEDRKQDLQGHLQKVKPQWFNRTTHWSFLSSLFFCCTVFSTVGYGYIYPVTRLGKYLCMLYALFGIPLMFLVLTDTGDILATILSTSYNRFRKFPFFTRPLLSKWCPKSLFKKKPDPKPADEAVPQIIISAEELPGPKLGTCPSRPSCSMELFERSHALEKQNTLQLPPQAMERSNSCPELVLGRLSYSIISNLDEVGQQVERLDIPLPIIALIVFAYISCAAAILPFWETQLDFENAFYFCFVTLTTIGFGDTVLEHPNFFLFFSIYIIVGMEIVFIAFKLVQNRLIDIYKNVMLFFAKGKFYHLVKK

TREK-1 = biological target: T2, TREK-1 (Rattus norvegicus, UniProt Q920B6); assay type: cell-based
T2 sequence (Q920B6 1-426): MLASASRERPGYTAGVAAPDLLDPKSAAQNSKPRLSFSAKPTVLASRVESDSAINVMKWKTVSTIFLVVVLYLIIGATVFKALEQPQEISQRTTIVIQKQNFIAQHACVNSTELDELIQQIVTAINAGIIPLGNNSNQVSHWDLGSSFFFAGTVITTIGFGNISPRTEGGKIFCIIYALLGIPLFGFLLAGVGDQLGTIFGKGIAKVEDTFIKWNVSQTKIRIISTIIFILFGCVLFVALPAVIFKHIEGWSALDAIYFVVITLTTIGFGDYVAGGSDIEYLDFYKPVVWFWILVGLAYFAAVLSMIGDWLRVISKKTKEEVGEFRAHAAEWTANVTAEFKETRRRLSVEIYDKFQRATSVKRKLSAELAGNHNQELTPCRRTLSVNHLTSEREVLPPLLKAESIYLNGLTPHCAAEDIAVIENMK

In the case of `CCCC[N+](CCCC)(CCCC)CCCC` [TButA, Tetrabutylammonium bromide], the IC50 (TRESK) is reported as 7 ± 1 µM, the “recovery from inhibition (kinetics)” value (TRESK; TRESK, 5 μM, −80 mV) is reported as “fairly rapid” and the inhibition at 5000 µM (TREK-1; read-out: inhibition of TREK-1 current) is reported as 60%.

With `CC[N+](CC)(CC)CC` [TEA, Tetraethylammonium chloride] the IC50 (TRESK) was 800 ± 100 µM and the IC50 (TREK-1) was about 60000 µM.
